Reference: patent US20150004134A1, “TREATMENT OF CANCER WITH HETEROCYCLIC INHIBITORS OF GLUTAMINASE” (Calithera Biosciences, Inc., priority 2012, published 2015)
Like-named read-outs stand apart in the source and are kept apart here.

Columns and labels:
[1] = molecular target: T1, recombinant form of Glutaminase 1 (GAC) (Homo sapiens, UniProt O94925); experiment: Recombinant Enzyme Assay - Time Dependence (60 min preincubation); format: biochemical
T1 sequence (O94925 137-598 isoform O94925-3 limits assumed): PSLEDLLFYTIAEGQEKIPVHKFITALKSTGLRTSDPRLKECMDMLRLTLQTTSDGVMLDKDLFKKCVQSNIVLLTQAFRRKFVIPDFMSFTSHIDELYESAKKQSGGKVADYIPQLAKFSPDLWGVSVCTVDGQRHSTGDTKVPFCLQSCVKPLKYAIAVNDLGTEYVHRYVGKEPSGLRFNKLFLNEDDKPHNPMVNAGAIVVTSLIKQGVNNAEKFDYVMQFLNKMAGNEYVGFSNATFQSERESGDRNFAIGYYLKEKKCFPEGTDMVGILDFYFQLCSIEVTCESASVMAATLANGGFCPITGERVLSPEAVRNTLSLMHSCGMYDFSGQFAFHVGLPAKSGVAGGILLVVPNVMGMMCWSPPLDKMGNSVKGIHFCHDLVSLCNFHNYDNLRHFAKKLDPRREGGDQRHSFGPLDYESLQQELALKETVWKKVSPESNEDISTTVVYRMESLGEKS
Description: The enzyme/compound mix was sealed with sealing foil (USA Scientific) and allowed to incubate, with mild agitation, for 60 minutes at 20° C. Enzymatic reaction was started with the addition of 50 μL of substrate solution (50 mM Tris-HCl pH 8.0, 0.2 mM EDTA, 150 mM K2HPO4, 0.1 mg/ml BSA, 1 mM DTT, 20 mM L-glutamine, 2 mM NAD^+, and 10 ppm antifoam) and read in a Molecular Devices M5 plate reader at 20° C. The plate reader was configured to read absorbance (=340 nm) in kinetic mode for 15 minutes. Data was recorded as milli-absorbance units per minute and slopes were compared to a control compound and a DMSO-only control on the same plate. Compounds with slopes less than the DMSO control were considered inhibitors and plate variability was assessed using the control compound.

[2] = system: P493-6 (myc "on") cells; experiment: Cell Proliferation Assay; format: cell-based; conditions: P493-6, 72 h, read-out: Cell prolif P493 72 h IC50, P493-6 cells, 72 h
In short: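 P493-6 cells with myc on, 10,000 per well in RPMI/10% FBS, exposed to serially diluted compound (0.5% DMSO final) for 72 h at 37 °C, 5% CO2. Antiproliferative effect read by Cell Titer Glo luminescence or Viacount FACS viability count.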

[3] = read-out: GAC Delta N2 IC50 60 min preinc

| IC50 [1] [nM] | Structure (SMILES) | IC50 [1, 3] [nM] | IC50 [2] [nM] |
| --- | --- | --- | --- |
|  | CCOC(=O)Cc1cccc(CC(=O)Nc2nnc(CCCCc3ccc(NC(=O)Cc4ccccc4)nn3)s2)c1 [Compound 456] | 3 | 24 |
|  | Cc1ccccc1CC(=O)Nc1nnc(CCCCc2ccc(NC(=O)Cc3ccccc3)nn2)s1 [Compound 523] | 21 | 55 |
|  | O=C(Cc1cccc(OCCCO)c1)Nc1ccc(CCCCc2nnc(NC(=O)Cc3ccccc3)s2)nn1 [Compound 539] | 9 | 45 |
|  | CC(N)c1cc(CC(=O)Nc2nnc(CCCCc3ccc(NC(=O)Cc4ccccc4)nn3)s2)ccc1F (centres unmarked) [Compound 655] | 19 | 350 |
|  | O=C(Cc1ccccc1)Nc1ccc(CCCCc2nnc(NC(=O)Cc3cccc(OC4COC(c5ccccc5)OC4)c3)s2)nn1 (centres unmarked) [Compound 506] | 10 | 170 |
|  | O=C(Cc1ccccc1)Nc1ccc(CCCCc2nnc(NC(=O)Cc3cccc(OC(CO)CO)c3)s2)nn1 [Compound 505] | 8 | 240 |
|  | CC(C)(C)OC(=O)NCCc1cccc(CC(=O)Nc2nnc(CCCCc3ccc(NC(=O)Cc4ccccc4)nn3)s2)c1 [Compound 429] | 4 | 7 |
|  | CCNC(=O)Nc1ccc(CCCCc2nnc(NC(=O)Cc3cccc(CN)c3)s2)nn1 [Compound 421] | 290 | 160 |
|  | CCOC(=O)NCc1cccc(CC(=O)Nc2ccc(CCCCc3nnc(NC(=O)C(OC)c4ccccc4)s3)nn2)c1 (centres unmarked) [Compound 609] | 9 | 14 |
|  | CCOc1cc(CC(=O)Nc2nnc(CCCCc3ccc(NC(=O)Cc4ccccc4)nn3)s2)ccc1O [Compound 556] | 5 | 120 |
|  | Nc1ccc(CC(=O)Nc2nnc(CCCCc3ccc(NC(=O)Cc4ccccc4)nn3)s2)cc1 [Compound 410] | 9 | 57 |
|  | CN(Cc1cccc(CC(=O)Nc2nnc(CCCCc3ccc(NC(=O)Cc4ccccc4)nn3)s2)c1)C(=O)Cc1ccccc1 [Compound 444] | 3 | 8 |
|  | O=C(Cc1cccc(Cl)c1)Nc1ccc(CCCCc2nnc(NC(=O)Cc3cccc(OC(F)(F)F)c3)s2)nn1 [Compound 618] | 8 | 35 |
|  | COc1ccccc1CC(=O)Nc1nnc(CCCCc2ccc(NC(=O)Cc3ccccc3)nn2)s1 [Compound 469] | 7 | 49 |
|  | O=C(Cc1ccccc1)Nc1ccc(CCCCc2nnc(NC(=O)Cc3cccc(Cn4cccn4)c3)s2)nn1 [Compound 395] | 4 | 15 |
|  | O=C(Cc1cccc(OCCO)c1)Nc1ccc(CCCCc2nnc(NC(=O)Cc3ccccc3)s2)nn1 [Compound 502] | 7 | 75 |
|  | NCc1cccc(CC(=O)Nc2nnc(CCCCc3ccc(NC(=O)C(O)c4cccc(Cl)c4)nn3)s2)c1 (centres unmarked) [Compound 423] | 22 | 42 |
|  | CC(C)N(C)C(=O)Cc1cccc(CC(=O)Nc2nnc(CCCCc3ccc(NC(=O)Cc4ccccc4)nn3)s2)c1 [Compound 498] | 3 | 17 |
| 4 | CC(NS(C)(=O)=O)c1cccc(CC(=O)Nc2ccc(CCCCc3nnc(NC(=O)Cc4ccccc4)s3)nn2)c1 (centres unmarked) [Compound 626] |  | 17 |
|  | CC(C)(C)OC(=O)NC(C)(C)c1cccc(CC(=O)Nc2ccc(CCCCc3nnc(NC(=O)Cc4ccccc4)s3)nn2)c1 [Compound 631] | 5 | 6 |
| 3 | CCCCNC(=O)Cc1cccc(CC(=O)Nc2ccc(CCCCc3nnc(NC(=O)Cc4ccccc4)s3)nn2)c1 [Compound 516] |  | 28 |

| IC50 [1] [nM] | Structure (SMILES) | IC50 [1, 3] [nM] | IC50 [2] [nM] |
| --- | --- | --- | --- |
|  | Nc1ccc(CCCCc2nnc(NC(=O)Cc3cccc(CNC(=O)c4ccccc4)c3)s2)nn1 [Compound 463] | 52 | 960 |
|  | O=C(Cc1ccccc1)Nc1ccc(CCCCc2nnc(NC(=O)Cc3cccc(OC(F)(F)F)c3)s2)nn1 [Compound 413] | 7 | 45 |
|  | CS(=O)(=O)NCc1cccc(CC(=O)Nc2nnc(CCCCc3ccc(NC(=O)Cc4ccccc4)nn3)s2)c1 [Compound 452] | 4 | 49 |
|  | CC(C)(C)NC(=O)Cc1cccc(CC(=O)Nc2nnc(CCCCc3ccc(NC(=O)Cc4ccccc4)nn3)s2)c1 [Compound 495] | 5 | 14 |
|  | O=C(Cc1ccccc1)Nc1ccc(CCCCc2nnc(NC(=O)Cc3ccc(F)c(OCCO)c3)s2)nn1 [Compound 540] | 7 | 50 |
|  | CCC(O)C(=O)NCc1cccc(CC(=O)Nc2nnc(CCCCc3ccc(NC(=O)Cc4ccccc4)nn3)s2)c1 (centres unmarked) [Compound 575] | 7 | 40 |
|  | O=C(Cc1ccccc1)Nc1ccc(CCCCc2nnc(NC(=O)Cc3cccc(Oc4ccccc4)c3)s2)nn1 [Compound 450] | 6 | 42 |
|  | CC(NC(=O)OC(C)(C)C)c1cccc(CC(=O)Nc2ccc(CCCCc3nnc(NC(=O)Cc4ccccc4)s3)nn2)c1 (centres unmarked) [Compound 543] | 4 | 5 |
|  | CC(=O)NC(C)c1cccc(CC(=O)Nc2ccc(CCCCc3nnc(NC(=O)Cc4ccccc4)s3)nn2)c1 (centres unmarked) [Compound 590] | 7 | 87 |
|  | O=C(Cc1ccccc1)Nc1ccc(CCCCc2nnc(NC(=O)Cc3cc(F)cc(C(F)(F)F)c3)s2)nn1 [Compound 414] | 10 | 58 |
|  | CC(C)CC(=O)NCc1cccc(CC(=O)Nc2nnc(CCCCc3ccc(NC(=O)Cc4ccccc4)nn3)s2)c1 [Compound 433] | 2 | 7 |
|  | CC(CO)(CO)C(=O)NCc1cccc(CC(=O)Nc2nnc(CCCCc3ccc(NC(=O)Cc4ccccc4)nn3)s2)c1 [Compound 581] | 11 | 240 |
|  | O=C(Cc1ccccc1Cl)Nc1ccc(CCCCc2nnc(NC(=O)Cc3ccccc3)s2)nn1 [Compound 521] | 6 | 52 |
|  | COC(=O)NC(C)c1cccc(CC(=O)Nc2nnc(CCCCc3ccc(NC(=O)Cc4ccccc4)nn3)s2)c1 (centres unmarked) [Compound 561] | 4 | 4 |
| 4 | CC(C)CC(=O)NC(C)c1cccc(CC(=O)Nc2ccc(CCCCc3nnc(NC(=O)Cc4ccccc4)s3)nn2)c1 (centres unmarked) [Compound 625] |  | 6 |
|  | O=C(Cc1ccccc1)Nc1ccc(CCCCc2nnc(NC(=O)Cc3cccc(CNC(=O)c4ccc(Br)nn4)c3)s2)nn1 [Compound 475] | 2 | 3 |
|  | CCCCS(=O)(=O)Cc1cccc(CC(=O)Nc2ccc(CCCCc3nnc(NC(=O)Cc4ccccc4)s3)nn2)c1 [Compound 645] | 2 | 15 |
|  | CCOC(=O)c1ccc(CC(=O)Nc2nnc(CCCCc3ccc(NC(=O)Cc4ccccc4)nn3)s2)cc1OCC [Compound 588] | 8 | 270 |
|  | CS(=O)(=O)CCCOc1cccc(CC(=O)Nc2nnc(CCCCc3ccc(NC(=O)Cc4ccccc4)nn3)s2)c1 [Compound 583] | 5 | 42 |
|  | O=C(Cc1cccc(Cl)c1)Nc1ccc(CCCCc2nnc(NC(=O)C(OC(=O)Cc3cccc(Cl)c3)c3cccc(Cl)c3)s2)nn1 (centres unmarked) [Compound 449] | 110 | 120 |
|  | O=C(Cc1ccccc1)Nc1ccc(CCCCc2nnc(NC(=O)Cc3c(F)cccc3F)s2)nn1 [Compound 443] | 11 | 100 |

| Structure (SMILES) | IC50 [1] [nM] | IC50 [1, 3] [nM] | IC50 [2] [nM] |
| --- | --- | --- | --- |
| CC(N)c1cccc(CC(=O)Nc2ccc(CCCCc3nnc(NC(=O)C(C)c4ccccc4)s3)nn2)c1 (centres unmarked) [Compound 619] | 13 |  | 150 |
